Patent US12201633B2, “Compounds and methods for treatment of visceral pain” (Arena Pharmaceuticals, Inc., priority 2017, dated 2025)

Columns and labels:
human CB2 receptor [1] = target: T1, human CB2 receptor (Homo sapiens, UniProt P34972); assay: PathHunter β-arrestin assay, CB2
human CB2 receptor [2] = target: T1, human CB2 receptor; assay: HTRF assay for direct cAMP measurement, CB2; type: cell-based; design: 93-0164 (CHO-K1 EA-Arrestin parental line); host or cells: CHO-K1 EA-Arrestin, clone #61
hCB1 = hCB1 (Homo sapiens, UniProt P21554); assay: PathHunter β-arrestin assay, CB1
hCB1, sequence (P21554 whole entry): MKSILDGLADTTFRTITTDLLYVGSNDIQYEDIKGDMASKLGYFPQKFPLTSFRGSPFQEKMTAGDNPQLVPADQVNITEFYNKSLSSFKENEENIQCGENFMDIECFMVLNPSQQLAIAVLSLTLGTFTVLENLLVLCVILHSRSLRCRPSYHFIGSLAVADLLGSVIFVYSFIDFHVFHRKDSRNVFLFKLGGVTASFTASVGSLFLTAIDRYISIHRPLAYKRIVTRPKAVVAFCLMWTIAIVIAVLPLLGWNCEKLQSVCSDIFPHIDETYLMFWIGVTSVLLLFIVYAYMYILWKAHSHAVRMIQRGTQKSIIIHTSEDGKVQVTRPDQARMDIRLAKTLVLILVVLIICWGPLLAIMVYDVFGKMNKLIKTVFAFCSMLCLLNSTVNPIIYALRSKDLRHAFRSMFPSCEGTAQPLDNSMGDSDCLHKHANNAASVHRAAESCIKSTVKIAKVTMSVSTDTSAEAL

T1 sequence (P34972 whole entry): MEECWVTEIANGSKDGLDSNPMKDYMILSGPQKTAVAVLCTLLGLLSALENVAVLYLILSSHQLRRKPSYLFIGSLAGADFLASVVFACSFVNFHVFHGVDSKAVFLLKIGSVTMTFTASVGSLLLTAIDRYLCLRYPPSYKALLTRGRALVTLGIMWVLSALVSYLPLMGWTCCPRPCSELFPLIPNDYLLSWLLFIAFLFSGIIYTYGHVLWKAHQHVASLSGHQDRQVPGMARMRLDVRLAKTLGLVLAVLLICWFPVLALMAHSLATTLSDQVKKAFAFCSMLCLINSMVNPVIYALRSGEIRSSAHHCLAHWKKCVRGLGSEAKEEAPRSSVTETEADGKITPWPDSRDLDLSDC

O=C(N[C@H](CO)C1CCOCC1)c1nn(-c2c[n+]([O-])ccn2)c2c1C[C@H]1C[C@@H]21 [Compound 841, (1aR,5aR)-2-(4-Oxy-pyrazin-2-yl)-1a,2,5,5a-tetrahydro-1H-2,3-diaza-cyclopropa[a]pentalene-4-carboxylic acid [(S)-2-hydroxy-1-(tetrahydro-pyran-4-yl)-ethyl]-amide]
EC50 (human CB2 receptor [1]): 0.0175 µM
EC50 (human CB2 receptor [2]): 0.0014 µM
EC50 (hCB1): 1.14 µM

COC(=O)[C@@H](NC(=O)c1nn(-c2c[n+]([O-])ccn2)c2c1C[C@H]1C[C@@H]21)C(C)(C)C [Compound 746, (S)-3,3-Dimethyl-2-{[(1aR,5aR)-2-(4-oxy-pyrazin-2-yl)-1a,2,5,5a-tetrahydro-1H-2,3-diaza-cyclopropa[a]pentalene-4-carbonyl]-amino}-butyric acid methyl ester]
EC50 (human CB2 receptor [1]): 0.0007 µM
EC50 (hCB1): 0.142 µM

CCNC(=O)[C@@H](NC(=O)c1nn(-c2c[n+]([O-])ccn2)c2c1C[C@H]1C[C@@H]21)C(C)(C)C [Compound 728, (1aR,5aR)-2-(4-Oxy-pyrazin-2-yl)-1a,2,5,5a-tetrahydro-1H-2,3-diaza-cyclopropa[a]pentalene-4-carboxylic acid ((S)-1-ethylcarbamoyl-2,2-dimethyl-propyl)-amide]
EC50 (human CB2 receptor [1]): 0.0011 µM
EC50 (hCB1): 0.251 µM

CC(C)(CF)NC(=O)c1nn(-c2cc(Cl)ccn2)c2c1C[C@@H]1C[C@H]21 [Compound 897, (1aS,5aS)-2-(4-Chloro-pyridin-2-yl)-1a,2,5,5a-tetrahydro-1H-2,3-diaza-cyclopropa[a]pentalene-4-carboxylic acid (2-fluoro-1,1-dimethyl-ethyl)-amide]
EC50 (human CB2 receptor [1]): 0.00379 µM
EC50 (hCB1): 0.951 µM

CC(C)(C)NC(=O)c1nn(-c2cnccn2)c2c1C[C@H]1C[C@@H]21 [Compound 593, (1aR,5aR)-2-Pyrazin-2-yl-1a,2,5,5a-tetrahydro-1H-2,3-diaza-cyclopropa[a]pentalene-4-carboxylic acid tert-butylamide]
EC50 (human CB2 receptor [1]): 0.0346 µM
EC50 (human CB2 receptor [2]): 0.00715 µM
EC50 (hCB1): 1.33 µM

CC(C)(C)[C@@H](CF)NC(=O)c1nn(-c2c[n+]([O-])ccn2)c2c1C[C@H]1C[C@@H]21 [Compound 918, (1aR,5aR)-2-(4-Oxy-pyrazin-2-yl)-1a,2,5,5a-tetrahydro-1H-2,3-diaza-cyclopropa[a]pentalene-4-carboxylic acid ((S)-1-fluoromethyl-2,2-dimethyl-propyl)-amide]
EC50 (human CB2 receptor [1]): 0.00101 µM
EC50 (hCB1): 0.437 µM

CC(C)(CO)NC(=O)c1nn(-c2ccc(F)cn2)c2c1C[C@H]1C[C@@H]21 [Compound 309, (1aR,5aR)-2-(5-Fluoro-pyridin-2-yl)-1a,2,5,5a-tetrahydro-1H-2,3-diaza-cyclopropa[a]pentalene-4-carboxylic acid (2-hydroxy-1,1-dimethyl-ethyl)-amide]
EC50 (human CB2 receptor [1]): 0.136 µM
EC50 (human CB2 receptor [2]): 0.019 µM

CC(C)(CO)NC(=O)c1nn(-c2cc(C#N)ccn2)c2c1C[C@H]1C[C@@H]21 [Compound 644, (1aR,5aR)-2-(4-Cyano-pyridin-2-yl)-1a,2,5,5a-tetrahydro-1H-2,3-diaza-cyclopropa[a]pentalene-4-carboxylic acid (2-hydroxy-1,1-dimethyl-ethyl)-amide]
EC50 (human CB2 receptor [1]): 0.00469 µM
EC50 (human CB2 receptor [2]): 0.0007 µM
EC50 (hCB1): 4.47 µM

O=C(NC1(CF)CCC1)c1nn(-c2c[n+]([O-])ccn2)c2c1C[C@@H]1C[C@H]21 [Compound 924, (1aS,5aS)-2-(4-Oxy-pyrazin-2-yl)-1a,2,5,5a-tetrahydro-1H-2,3-diaza-cyclopropa[a]pentalene-4-carboxylic acid (1-fluoromethyl-cyclobutyl)-amide]
EC50 (human CB2 receptor [1]): 0.0105 µM
EC50 (human CB2 receptor [2]): 0.0008 µM

CC(C)(C)[C@@H](CO)NC(=O)c1nn(-c2cnccn2)c2c1C[C@H]1C[C@@H]21 [Compound 642, (1aR,5aR)-2-Pyrazin-2-yl-1a,2,5,5a-tetrahydro-1H-2,3-diaza-cyclopropa[a]pentalene-4-carboxylic acid ((S)-1-hydroxymethyl-2,2-dimethyl-propyl)-amide]
EC50 (human CB2 receptor [1]): 0.0264 µM
EC50 (human CB2 receptor [2]): 0.00438 µM

O=C(N[C@H]1c2ccccc2C[C@H]1O)c1nn(-c2c[n+]([O-])ccn2)c2c1C[C@@H]1C[C@H]21 [Compound 921, (1aS,5aS)-2-(4-Oxy-pyrazin-2-yl)-1a,2,5,5a-tetrahydro-1H-2,3-diaza-cyclopropa[a]pentalene-4-carboxylic acid ((1S,2R)-2-hydroxy-indan-1-yl)-amide]
EC50 (human CB2 receptor [1]): 0.00259 µM
EC50 (human CB2 receptor [2]): 0.0002 µM

O=C(NC1(C(F)(F)F)CCC1)c1nn(-c2c[n+]([O-])ccn2)c2c1C[C@@H]1C[C@H]21 [Compound 765, (1aS,5aS)-2-(4-Oxy-pyrazin-2-yl)-1a,2,5,5a-tetrahydro-1H-2,3-diaza-cyclopropa[a]pentalene-4-carboxylic acid (1-trifluoromethyl-cyclobutyl)-amide]
EC50 (human CB2 receptor [1]): 0.00116 µM
EC50 (human CB2 receptor [2]): 0.0001 µM

CC(CO)(CO)NC(=O)c1nn(-c2cc(C#N)ccn2)c2c1C[C@H]1C[C@@H]21 [Compound 820, (1aR,5aR)-2-(4-Cyano-pyridin-2-yl)-1a,2,5,5a-tetrahydro-1H-2,3-diaza-cyclopropa[a]pentalene-4-carboxylic acid (2-hydroxy-1-hydroxymethyl-1-methyl-ethyl)-amide]
EC50 (human CB2 receptor [1]): 0.0384 µM
EC50 (human CB2 receptor [2]): 0.00262 µM

O=C(NC1(CO)CCC1)c1nn(-c2c[n+]([O-])ccn2)c2c1C[C@H]1C[C@@H]21 [Compound 698, (1aR,5aR)-2-(4-Oxy-pyrazin-2-yl)-1a,2,5,5a-tetrahydro-1H-2,3-diaza-cyclopropa[a]pentalene-4-carboxylic acid (1-hydroxymethyl-cyclobutyl)-amide]
EC50 (human CB2 receptor [1]): 0.0279 µM
EC50 (human CB2 receptor [2]): 0.0102 µM

N#Cc1ccnc(-n2nc(C(=O)N[C@H](CO)CC(F)(F)F)c3c2[C@H]2C[C@H]2C3)c1 [Compound 891, (1aS,5aS)-2-(4-Cyano-pyridin-2-yl)-1a,2,5,5a-tetrahydro-1H-2,3-diaza-cyclopropa[a]pentalene-4-carboxylic acid ((S)-3,3,3-trifluoro-1-hydroxymethyl-propyl)-amide]
EC50 (human CB2 receptor [1]): 0.0162 µM
EC50 (hCB1): 11.8 µM

CC1(NC(=O)c2nn(-c3c[n+]([O-])ccn3)c3c2C[C@H]2C[C@@H]32)CCC1 [Compound 821, (1aR,5aR)-2-(4-Oxy-pyrazin-2-yl)-1a,2,5,5a-tetrahydro-1H-2,3-diaza-cyclopropa[a]pentalene-4-carboxylic acid (1-methyl-cyclobutyl)-amide]
EC50 (human CB2 receptor [1]): 0.00712 µM
EC50 (human CB2 receptor [2]): 0.0006 µM

O=C(NC(CO)(CF)CF)c1nn(-c2cc(Cl)ccn2)c2c1C[C@@H]1C[C@H]21 [Compound 889, (1aS,5aS)-2-(4-Chloro-pyridin-2-yl)-1a,2,5,5a-tetrahydro-1H-2,3-diaza-cyclopropa[a]pentalene-4-carboxylic acid (2-fluoro-1-fluoromethyl-1-hydroxymethyl-ethyl)-amide]
EC50 (human CB2 receptor [1]): 0.0086 µM
EC50 (hCB1): 4.07 µM

CC(C)(C#N)NC(=O)c1nn(-c2cc(Cl)ccn2)c2c1C[C@H]1C[C@@H]21 [Compound 625, (1aR,5aR)-2-(4-Chloro-pyridin-2-yl)-1a,2,5,5a-tetrahydro-1H-2,3-diaza-cyclopropa[a]pentalene-4-carboxylic acid (cyano-dimethyl-methyl)-amide]
EC50 (human CB2 receptor [1]): 0.0118 µM
EC50 (human CB2 receptor [2]): 0.00445 µM
